Measured values taken from patent EP4778933A1 (Chengdu Hyperway Pharmaceuticals Co., Ltd., priority 2023, dated 2025).
Read-outs that look alike come from different tables or passages of the source.

Tests used:
[1] = tested on: KRAS G13D-mediated ERK phosphorylation; assay: Inhibition of KRAS G13D-mediated ERK phosphorylation in HCT116 cells; format: cell-based; details: Homo sapiens, HCT-116, 3 h incubation, read-out: Inhibitory activity on ERK phosphorylation (IC50) HCT116-G13D
Method: (§1) Day 1: AGS cells, SW480 cells, NCI H358 cells, HCT116 cells, and KP2 cells were seeded into 384-well cell culture plates and cultured overnight in a 37°C, 5% CO2 incubator.
(§2) Day 2: The compounds were added to the plates using Echo550 and incubated for 3 h in a 37°C, 5% CO2 incubator. Then, cells fixed with paraformaldehyde, permeated with methanol and blocked with a blocking solution were added. Finally, a mixed solution of primary antibodies (rabbit anti pERK, mouse anti GAPDH) was added, and the mixture was incubated overnight at 4°C.
(§3) Day 3: The mixed solution of primary antibodies was discarded, and a mixed solution of secondary antibodies (goat anti rabbit 800 CW, goat anti mouse 680 RD) was added. The resulting mixture was incubated at room temperature in the dark. Finally, the cell culture plate was washed with PBST, and then inverted for 1 minute of centrifugation. The fluorescence signal values were read with Odyssey CLx.
(§4) ERK phosphorylation was calculated according to the following formula: [formula] • Negative control: DMSO • Positive control: 10 µM Reference • IC50 value was fitted and calculated by XLFit 5.0 using the parametric formula. • Y = Bottom+(Top-Bottom)/(1+10^((LogIC50-X)*HillSlope)) • X: log value of compound concentration. • Y: average value of relative expression of p-ERK between replicate wells.

[2] = tested on: KRAS G12V-mediated ERK phosphorylation; assay: Inhibition of KRAS G12V-mediated ERK phosphorylation in SW480 cells; format: cell-based; details: 3 h incubation, read-out: Inhibitory activity on ERK phosphorylation (IC50) SW480-G12V
Method: as §1, §2, §3, §4

[3] = tested on: KRAS G12R-mediated ERK phosphorylation; assay: Inhibition of KRAS G12R-mediated ERK phosphorylation in KP2 cells; format: cell-based; details: 3 h incubation, read-out: Inhibitory activity on ERK phosphorylation (IC50) KP2-G12R
Method: as §1, §2, §3, §4

[4] = tested on: KRAS G12C-mediated ERK phosphorylation; assay: Inhibition of KRAS G12C-mediated ERK phosphorylation in NCI H358 cells; format: cell-based; details: Homo sapiens, 3 h incubation, read-out: Inhibitory activity on ERK phosphorylation (IC50) NCI H358-G12C
Method: as §1, §2, §3, §4

[5] = In vivo pharmacokinetic test in mice; details: female BALB/c mice, oral, single dose 30 mg/kg, plasma
Method: (§5) Each test compound was administered orally once to female BALB/c mice for pharmacokinetic study. The test compounds were prepared on the day of administration. The oral administration solvent: 50 mM sodium citrate (pH 5.0) + 10% captisol. The oral administration was conducted in a dose of 30 mg/kg. The animals were fasted for 10-14 h before oral administration, and the feeding was resumed 4 h after administration. Pharmacokinetic samples were collected through the orbit. The collection time points were: 15 min, 30 min, 1 h, 2 h, 4 h, 6 h, 8 h and 24 h after administration. Three whole blood samples were collected at each time point, with a collection volume of about 0.2 mL, and anticoagulated with sodium heparin. After blood samples were collected, they were immediately placed on ice and centrifuged within 1 h to isolate plasma (centrifugation conditions: 8000 rpm, 1 min, 2-8°C). The collected plasma was stored in a -20°C refrigerator before analysis. The concentrations of compounds in the plasma samples were determined using an LC-MS/MS analysis method.

[6] = tested on: KRAS G12D-mediated ERK phosphorylation; assay: Inhibition of KRAS G12D-mediated ERK phosphorylation in AGS cells (in-cell pERK/GAPDH immunofluorescence); format: cell-based; details: AGS cells, 3 h incubation, read-out: Inhibitory activity on ERK phosphorylation (IC50) AGS-G12D
Method: as §1, §2, §3, §4

[7] = In vivo pharmacokinetic test in rats; set-up: species or system SD Rats; details: Sprague-Dawley (SD), rat; male rats, oral, single dose 30 mg/kg, plasma
Method: as §5, with “once to male […] rats” for “once to female BALB/c mice”, “male BALB/c rats for pharmacokinetic” for “female BALB/c mice for pharmacokinetic”, “administration. The intravenous administration solvent: 5% DMSO + 10% solutol + 85% saline; and the oral administration” for “administration. The oral administration”, “points were: 5 min (intravenous administration), 15 min,” for “points were: 15 min,”, “analysis method. Table 4: Pharmacokinetic test results of some compounds in SD Rats” for “analysis method.”

RKN (KRAS G12V) = assay: 3D cell proliferation inhibition test (CellTiter-Glo 3D, 7 days), RKN; format: cell-based; details: 168 h, read-out: Inhibitory activity on cell proliferation (IC50) RKN (KRAS G12V)
Method: (§6) The diluted compounds to be tested were added to 384-well low-adhesion KRAS mutant types (such as GP2D, NCI H358, LoVo, RKN and KP2) of cell culture plates by using a nanoliter pipetting system (LABCYTE, P-0200). Then, the cells were plated and incubated in a 37°C, 5% CO2 incubator for 7 days. Afterward, CellTiter-Glo® 3D reagent was added, and the luminescent values were read by an Envision multifunctional microplate reader (the luminescent signal is proportional to the amount of ATP in the system, and the ATP content directly represents the number of viable cells in the system). Finally, the IC50 values (half-maximal inhibitory concentration) of the compounds were obtained by the XLFIT software using the nonlinear fitting formula.
(§7) • a) The diluted compounds to be tested were added to 384-well low-adhesion KRAS mutant types of cell culture plates by using a nanoliter pipetting system. • b) Cells were seeded into the 384-well plates in a) and then centrifuged at 1000 rpm for 1 min at room temperature, with a final DMSO concentration of compound being 0.5%. The plates were then incubated in a 5% CO2 constant-temperature incubator at 37°C for 7 days. • c) CellTiter-Glo® 3D was added to the 384-well cell culture plates in b), shaken in the dark, and incubated at room temperature. • d) The luminescence values were read by using an Envision multifunctional microplate reader.
(§8) The IC50 (half-maximal inhibitory concentration) values of the compounds were obtained by using XLFIT software according to the following nonlinear fitting formula: Y = Bottom + (Top−Bottom)/(1+10^(∧)((LogIC50−X)×HillSlope)) [formula] • X: log value of compound concentration. • Y: inhibition rate (%) [formula] • Negative control: DMSO. • Positive control: Medium only.

[8] = tested on: human ovarian cancer RKN mouse xenograft tumors; assay: In vivo drug efficacy, RKN subcutaneous xenograft tumor model; set-up: species or system Balb/c nude mice; details: 50 mg/kg, PO
Method: A subcutaneous xenograft tumor model of human ovarian cancer RKN (derived from uterine leiomyosarcoma) cells was established in Balb/c nude mice. RKN tumor cells resuspended in Ham's F12 medium were inoculated subcutaneously on the right side of the experimental animals at 5×10^6 + gel/0.1 mL. When the tumor grew to about 150-200 mm^3, 20 animals having relatively uniform tumor volumes were selected for group administration, with a total of 4 groups, 5 animals in each group. On the day of the experiment, the animals were given the corresponding drugs according to the groups. The first group G1 was set as a solvent group, and 50 mM citrate buffer (pH 5.0) + 10% Captisol was given by gavage alone. The second group G2 was given a 50 mM citrate buffer (pH 5.0) + 10% Captisol of compound 21. The third group G3 was given a 50 mM citrate buffer (pH 5.0) + 10% Captisol of compound 26. The fourth group G4 was given a 50mM citrate buffer (pH 5.0) + 10% Captisol of compound 31. Table 7: Study on effect of test substances on animal tumor size in the human ovarian cancer RKN mouse xenograft tumor model
During the experiment, the body weight and tumor size of the animals were measured twice a week, and the clinical symptoms of the animals were observed and recorded every day. Each drug administration was based on the most recent weighing of the animals.
The tumor was measured with a digital vernier caliper to measure the length (a) and width (b). The tumor volume (TV) was calculated using the following formula: TV = a × b^2 /2. [formula]

GP2D (KRASG12D) = assay: 3D cell proliferation inhibition test (CellTiter-Glo 3D, 7 days), GP2D; format: cell-based; details: 168 h, read-out: Inhibitory activity on cell proliferation (IC50) GP2D (KRASG12D)
Method: as §6, §7, §8

Work on `CC1(O)COCCN(c2nc(OCC34CCCN3C(c3cc(F)c(F)c(F)c3)CC4)nc3c(F)c(-c4ccc(F)c5sc(N)c(C#N)c45)c(Cl)cc23)C1` (single isomer, unassigned) [Example 12, 2-amino-4-[6-chloro-8-fluoro-4-(6-hydroxy-6-methyl-1,4-oxazepan-4-yl)-2-({[3-(3,4,5-trifluorophenyl)-2,3,5,6,7,7a-hexahydro-1H-pyrrolizin-7a-yl]methyl}oxy)quinazolin-7-yl]-7-fluorobenzo[b]thiophene-3-carbonitrile] yielded an IC50 [1] of 63 nM, an IC50 [2] of 2.4 nM and an IC50 [3] of 148 nM. The IC50 [4] was 3.1 nM, the AUC ([5]; 30 mg/kg) was 37427 ng·h/mL and the Cmax ([5]; 30 mg/kg) was 5544 ng/mL. For the same molecule, the IC50 [6] was 3.3 nM.

Work on `CC1(O)COCCN(c2nc(OCC34CCCN3C(c3cc(F)c(F)c(F)c3)CC4)nc3c(F)c(-c4cccc5sc(N)c(C#N)c45)c(Cl)cc23)C1` (single isomer, unassigned) [Example 21, 2-amino-4-[6-chloro-8-fluoro-4-(6-hydroxy-6-methyl-1,4-oxazepan-4-yl)-2-({[3-(3,4,5-trifluorophenyl)-2,3,5,6,7,7a-hexahydro-1H-pyrrolizin-7a-yl]methyl}oxy)quinazolin-7-yl]benzo[b]thiophene-3-carbonitrile] yielded an IC50 [1] of 45 nM, an IC50 ([2]; Homo sapiens, SW480, 3 h) of 7.8 nM and an IC50 [3] of 146 nM. For the same molecule, the AUC [7] was 5290 ng·h/mL, the Cmax [7] was 866 ng/mL and the IC50 [4] was 2.04 nM. For the same molecule, the IC50 (RKN (KRAS G12V)) was 7.23 nM, the AUC ([5]; 30 mg/kg) was 30872 ng·h/mL and the Cmax ([5]; 30 mg/kg) was 5218 ng/mL. For the same molecule, the IC50 [6] was 4.7 nM, the “inhibitory effects on human ovarian cancer RKN mouse xenograft tumors” value ([8]; BID, 28 days) was “significant inhibitory effects” and the “Tumor volume inhibition rate (TGI)” value ([8]; RKN xenograft, BID × 28, day 28) was 109%. The IC50 (GP2D (KRASG12D)) was 4.26 nM.

`CC1(O)COCCN(c2nc(OCC34CCCN3C(c3cc(F)c(F)c(F)c3)CC4)nc3c(F)c(-c4cccc5sc(N)c(C#N)c45)c(Br)cc23)C1` (centres unmarked) [Example 23, 2-amino-4-[6-bromo-8-fluoro-4-(6-hydroxy-6-methyl-1,4-oxazepan-4-yl)-2-({[3-(3,4,5-trifluoropheny 1)-2,3,5,6,7,7a-hexahydro-1H-pyrrolizin-7a-yl]methyl}oxy)quinazolin-7-yl]benzo[b]thiophene-3-carb onitrile] showed an IC50 [1] of 94 nM, an IC50 [3] of 663 nM and an IC50 [4] of 4.9 nM. The AUC ([5]; mouse, read-out: AUC) was 9230 ng·h/mL, the Cmax ([5]; mouse, read-out: Cmax) was 3620 ng/mL and the IC50 ([6]; Homo sapiens, AGS, 3 h) was 4.2 nM.
